The numbers were not newly measured in patent US5238927A (priority 1992, dated 1993), which cites them from elsewhere.

The conditions of the data set: in vivo.

On to `NC(=O)c1cc[n+](COC[n+]2ccccc2C=NO)cc1` [HI-6, 1-(2-hydroxyiminomethylpyridinium)-2-(4-carboxyamidopyridinium)-dimethyl ether dichloride], for which the “effectiveness as antidote in the treatment of organophosphorus toxin nerve poisoning” value is given as “most effective known antidote”.
